Assay results as given in the NIST ThermoML archive (doi:10.1016/j.jct.2016.03.018).
± gives the expanded uncertainty stated by the source.

Details: Liquid, Closed cell (Static) method

| Structure (SMILES) | vapor or sublimation pressure (273.15 K) [kPa] | vapor or sublimation pressure (283.15 K) [kPa] | vapor or sublimation pressure (293.15 K) [kPa] | vapor or sublimation pressure (253.15 K) [kPa] | vapor or sublimation pressure (263.15 K) [kPa] |
| --- | --- | --- | --- | --- | --- |
| F/C=C\C(F)(F)F [(Z)-1,3,3,3-tetrafluoro-1-propene] | 68.5 ± 1 | 102.5 ± 1.1 | 148.9 ± 1.1 | – | – |
| CCC [propane] | 474.4 ± 1.7 | 636.4 ± 2.1 | 836.3 ± 2.6 | 244.1 ± 1.2 | 345.1 ± 1.4 |
